# Assays:
# [1] = molecular target: Potassium voltage-gated channel subfamily A member 2 (Homo sapiens) (UniProt P16389); assay: Inhibition of human Kv 1.2 stably expressed in CHO cells by whole cell patch clamp method; format: cell-based
# [2] = system: CHO; assay: Induction of leak current in wild-type CHO cells by electrophysiology method; format: cell-based, Cricetulus griseus; settings: chinese hamster
# [3] = system: CHO; assay: Cytotoxicity against wild-type CHO cells assessed as growth inhibition after 72 hrs by WST-8 assay; format: cell-based; settings: Cricetulus griseus
# [4] = system: CHO; assay: Cytotoxicity against CHO cells transfected with human Kv 1.2 assessed as growth inhibition after 72 hrs by WST-8 assay; format: cell-based; settings: Cricetulus griseus
# Chain of Potassium voltage-gated channel subfamily A member 2 (Homo sapiens) (P16389 whole entry): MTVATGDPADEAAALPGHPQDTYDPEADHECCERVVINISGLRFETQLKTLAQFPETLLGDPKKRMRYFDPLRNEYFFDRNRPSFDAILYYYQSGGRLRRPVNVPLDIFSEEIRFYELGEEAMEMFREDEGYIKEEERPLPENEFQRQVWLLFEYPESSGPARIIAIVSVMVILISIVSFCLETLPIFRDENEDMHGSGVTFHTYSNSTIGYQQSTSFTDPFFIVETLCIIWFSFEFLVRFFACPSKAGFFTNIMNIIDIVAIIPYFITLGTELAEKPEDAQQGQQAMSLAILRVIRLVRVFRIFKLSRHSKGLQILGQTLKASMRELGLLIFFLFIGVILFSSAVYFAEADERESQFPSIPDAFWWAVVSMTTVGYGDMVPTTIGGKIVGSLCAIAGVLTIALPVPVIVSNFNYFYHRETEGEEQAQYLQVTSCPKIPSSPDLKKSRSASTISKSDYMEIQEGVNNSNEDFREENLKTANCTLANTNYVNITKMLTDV
SMILES,inhibition [1],Activity [2],IC50 [3],IC50 [4]
C=CC/C=C\C=C/[C@H]1O[C@H]2C[C@H]3O[C@H]4CC[C@H]5O[C@H]6C[C@@]7(C)O[C@@]8(C)[C@@H](O)C[C@H](CCCO)O[C@@H]8C[C@@H]7O[C@@H]6C[C@@H]5O[C@]4(C)C[C@]3(C)O[C@@H]2C=C[C@]1(C)O,Dose-dependent effect,Dose-dependent effect,78 µM,95 µM
C=CC/C=C\C=C/[C@H]1O[C@H]2C[C@H]3O[C@H]4CC[C@H]5O[C@H]6C[C@@]7(C)OCCC[C@@H]7O[C@@H]6C[C@@H]5O[C@]4(C)C[C@]3(C)O[C@@H]2C=C[C@]1(C)O,,,6 µM,6.5 µM
C=CC/C=C\C=C/[C@H]1O[C@H]2C[C@H]3O[C@H]4CCCCO[C@]4(C)C[C@]3(C)O[C@@H]2C=C[C@]1(C)O,,,> 100 µM,> 100 µM

# — ChEMBL document CHEMBL3352731, “Evaluation of gambierol and its analogs for their inhibition of human Kv1.2 and cytotoxicity” (Bioorg Med Chem Lett, 2015)
